# Laboratory results from publication PMC7168933, “Design, Synthesis and Biochemical Evaluation of Novel Ethanoanthracenes and Related Compounds to Target Burkitt’s Lymphoma” (Pharmaceuticals, 2020).
# pIC50: −log10 of the molar value.
# What was measured:
# [1] = tested on: DG-75 Burkitt lymphoma cell line (EBV−, chemoresistant); experiment: cells; details: Homo sapiens, DG-75, 48 h; for viability at 1 µM: read-out: DG-75 Cell Viability % 1 μM, 1 μM, 48 h; for viability at 10 µM: read-out: DG-75 Cell Viability % 10 μM, 10 μM, 48 h
# [2] = tested on: MUTU-1 Burkitt lymphoma cell line (EBV+); experiment: cells; details: Mutu-1, 24 h; for viability at 1 µM: read-out: MUTU-1 Cell Viability % 1 μM, 1 μM, 24 h; for viability at 10 µM: read-out: MUTU-1 Cell Viability % 10 μM, 10 μM, 24 h; for pIC50: read-out: IC50 MUTU-I 24 h
Structure (SMILES),viability at 1 µM [1],viability at 10 µM [1],viability at 1 µM [2],viability at 10 µM [2],melting point,pIC50 [2]
"CC/C(=C\C12c3ccccc3C(c3ccccc31)C1C(=O)N(c3ccc(Cl)cc3)C(=O)C12)[N+](=O)[O-] (stereo not drawn) [Compound 17d, (E)-13-(4-Chlorophenyl)-9-(2-nitrobut-1-en-1-yl)-9,10-dihydro-9,10-[3,4]epipyrroloanthracene-12,14-dione]",96.6%,78.4%,102%,99.9%,275 to 279 °C,
O=C1NC(=O)C2C3c4ccccc4C(c4ccccc43)C12 (stereo not drawn) [Compound 21b],82%,74.5%,104%,92.8%,299 to 300 °C,
"COc1cc(OC)cc(N2C(=O)C3C4c5ccccc5C(/C=C/[N+](=O)[O-])(c5ccccc54)C3C2=O)c1 (stereo not drawn) [Compound 16j, (E)-13-(3,5-Dimethoxyphenyl)-9-(2-nitrovinyl)-9,10-dihydro-9,10-[3,4]epipyrroloanthracene-12,14-dione]",33.5%,0.16%,4.2%,5.4%,268 to 271 °C,6.59
"CC/C(=C\C12c3ccccc3C(c3ccccc31)C1C(=O)OC(=O)C12)[N+](=O)[O-] (stereo not drawn) [Compound 13c, (E)-9-(2-Nitrobut-1-en-1-yl)-9,10-dihydro-9,10-[3,4]furanoanthracene-12,14-dione]",68%,80.7%,64.1%,74.1%,230 to 233 °C,
"O=C1NC(=O)C2C1C1c3ccccc3C2(CC[N+](=O)[O-])c2ccccc21 (stereo not drawn) [Compound 14b, 9-(2-Nitroethyl)-9,10-dihydro-9,10-[3,4]epipyrroloanthracene-12,14-dione]",79.3%,101%,58.5%,95%,295 to 297 °C,
"N#CC(C#N)=CC12c3ccccc3C(c3ccccc31)C1C(=O)OC(=O)C12 (stereo not drawn) [Compound 23d, 2-((12,14-Dioxo-9,10-[3,4]furanoanthracen-9(10H)-yl)methylene)malononitrile]",103%,95.7%,99.8%,82.7%,196 to 198 °C,
"C/C(=C\C12c3ccccc3C(Cl)(c3ccccc31)C1C(=O)OC(=O)C12)[N+](=O)[O-] (stereo not drawn) [Compound 13e, (E)-9-Chloro-10-(2-nitroprop-1-en-1-yl)-9,10-dihydro-9,10-[3,4]furanoanthracene-12,14-dione]",78.2%,98.2%,83.3%,101%,270 to 272 °C,
"CC/C(=C\C12c3ccccc3C(c3ccccc31)C1C(=O)NC(=O)C12)[N+](=O)[O-] (stereo not drawn) [Compound 13i, (E)-9-(2-Nitrobut-1-en-1-yl)-9,10-dihydro-9,10-[3,4]epipyrroloanthracene-12,14-dione]",96.3%,89.4%,91.1%,73%,296 to 298 °C,
"C/C(=C\C12c3ccccc3C(Cl)(c3ccccc31)C1C(=O)N(c3ccccc3)C(=O)C12)[N+](=O)[O-] (stereo not drawn) [Compound 17g, (E)-9-Chloro-10-(2-nitroprop-1-en-1-yl)-13-phenyl-9,10-dihydro-9,10-[3,4]epipyrroloanthracene-12,14-dione]",85.3%,84.3%,88%,78.5%,268 to 271 °C,
"C/C(=C\C12c3ccccc3C(c3ccccc31)C1C(=O)N(c3ccc(Cl)cc3)C(=O)C12)[N+](=O)[O-] (stereo not drawn) [Compound 17c, (E)-13-(4-Chlorophenyl)-9-(2-nitroprop-1-en-1-yl)-9,10-dihydro-9,10-[3,4]epipyrroloanthracene-12,14-dione]",96.6%,86.3%,78%,77.6%,298 to 300 °C,
"O=C1C2C3c4ccccc4C(/C=C/[N+](=O)[O-])(c4ccccc43)C2C(=O)N1Cc1ccccc1 (stereo not drawn) [Compound 17i, (E)-13-Benzyl-9-(2-nitrovinyl)-9,10-dihydro-9,10-[3,4]epipyrroloanthracene-12,14-dione]",93.1%,0.67%,74.9%,0.86%,232 to 236 °C,
"CC(=CC12c3ccccc3C(c3ccccc31)c1ccccc12)[N+](=O)[O-] [Compound 20b, (E)-9-(2-Nitroprop-1-en-1-yl)-9,10-dihydro-9,10-[1,2]benzenoanthracene]",86.4%,100%,95.2%,102%,226 to 228 °C,
"O=C1NC(=O)C2C1C1c3ccccc3C2(/C=N/O)c2ccccc21 (stereo not drawn) [Compound 23j, (E)-12,14-Dioxo-9,10-[3,4]epipyrroloanthracene-9(10H)-carbaldehyde oxime]",69.1%,63.9%,92.8%,87.6%,272 to 273 °C,
"CC/C(=C\C12c3ccccc3C(c3ccccc31)C1C(=O)N(Cc3ccccc3)C(=O)C12)[N+](=O)[O-] (stereo not drawn) [Compound 17k, (E)-13-Benzyl-9-(2-nitrobut-1-en-1-yl)-9,10-dihydro-9,10-[3,4]epipyrroloanthracene-12,14-dione]",74.8%,96%,80.4%,94%,188 to 199 °C,
"O=C1OC(=O)C2C1C1(Cl)c3ccccc3C2(/C=C/[N+](=O)[O-])c2ccccc21 (stereo not drawn) [Compound 13d, (E)-9-Chloro-10-(2-nitrovinyl)-9,10-dihydro-9,10-[3,4]furanoanthracene-12,14-dione]",98.7%,102%,35.6%,43.5%,275 to 277 °C,
"O=C1C2C3c4ccccc4C(/C=C/[N+](=O)[O-])(c4ccccc43)C2C(=O)N1c1ccccc1O (stereo not drawn) [Compound 16l, (E)-13-(2-Hydroxyphenyl)-9-(2-nitrovinyl)-9,10-dihydro-9,10-[3,4]epipyrroloanthracene-12,14-dione]",59.2%,0%,2.3%,0.61%,203 to 206 °C,
"CC/C(=C\C12c3ccccc3C(Cl)(c3ccccc31)C1C(=O)NC(=O)C12)[N+](=O)[O-] (stereo not drawn) [Compound 13l, (E)-9-Chloro-10-(2-nitrobut-1-en-1-yl)-9,10-dihydro-9,10-[3,4]epipyrroloanthracene-12,14-dione]",90%,102%,88.6%,88.3%,294 to 298 °C,
"O=C1C2C3c4ccccc4C(CC[N+](=O)[O-])(c4ccccc43)C2C(=O)N1c1ccccc1 (stereo not drawn) [Compound 14c, 9-(2-Nitroethyl)-13-phenyl-9,10-dihydro-9,10-[3,4]epipyrroloanthracene-12,14-dione]",75.7%,81.4%,75.5%,79.2%,248 to 250 °C,
"CC(=O)OC1(C#N)CC2c3ccccc3C1(/C=C/[N+](=O)[O-])c1ccccc12 (stereo not drawn) [Compound 19d, (E)-11-Cyano-10-(2-nitrovinyl)-9,10-dihydro-9,10-ethanoanthracen-11-yl acetate]",99.4%,1%,48.9%,0.69%,168 to 170 °C,
"COc1cc(CN2C(=O)C3C4c5ccccc5C(/C=C(\C)[N+](=O)[O-])(c5ccccc54)C3C2=O)cc(OC)c1OC (stereo not drawn) [Compound 17l, (E)-9-(2-Nitroprop-1-en-1-yl)-13-(3,4,5-trimethoxybenzyl)-9,10-dihydro-9,10-[3,4]epipyrroloanthracene-12,14-dione]",81.9%,82.1%,66.8%,77.3%,227 to 229 °C,
"N#CC(C#N)=CC12c3ccccc3C(c3ccccc31)C1C(=O)NC(=O)C12 (stereo not drawn) [Compound 23e, 2-((12,14-Dioxo-9,10-[3,4]epipyrroloanthracen-9(10H)-yl)methylene)malononitrile]",85.7%,98.7%,82.9%,83.6%,281 to 284 °C,
"CC/C(=C\C12c3ccccc3C(c3ccccc31)C1C(=O)N(Cc3cc(OC)c(OC)c(OC)c3)C(=O)C12)[N+](=O)[O-] (stereo not drawn) [Compound 17m, (E)-9-(2-Nitrobut-1-en-1-yl)-13-(3,4,5-trimethoxybenzyl)-9,10-dihydro-9,10-[3,4]epipyrroloanthracene-12,14-dione]",82.2%,77.8%,82.2%,66.8%,224 to 229 °C,
"COC(=O)c1ccc(N2C(=O)C3C4c5ccccc5C(/C=C/[N+](=O)[O-])(c5ccccc54)C3C2=O)cc1 (stereo not drawn) [Compound 16h, Methyl (E)-4-(9-(2-nitrovinyl)-12,14-dioxo-9,10-dihydro-9,10-[3,4]epipyrroloanthracen-13-yl)benzoate]",20.8%,0.18%,2.3%,0.79%,254 to 255 °C,6.70
